Results as given in a compilation of properties of binary mixtures (doi:10.1016/j.molliq.2009.05.001).

Assay: xn = mol fraction of the nth substance listed
Conditions: 101 kPa; for viscosity: 298.1 K; for electrical conductivity: 298.15 K

CC[n+]1ccn(C)c1.N#C[N-]C#N + CC[n+]1ccn(C)c1.F[B-](F)(F)F
viscosity (x2 = 0): 17.4 mPa·s
viscosity (x2 = 0.2164): 19.7 mPa·s
viscosity (x2 = 0.3218): 21.4 mPa·s
viscosity (x2 = 0.474): 23 mPa·s
electrical conductivity (x2 = 0): 2.83 S/m
electrical conductivity (x2 = 0.0448): 2.79 S/m
electrical conductivity (x2 = 0.2164): 2.61 S/m
electrical conductivity (x2 = 0.3218): 2.49 S/m
electrical conductivity (x2 = 0.474): 2.3 S/m
electrical conductivity (x2 = 0.6254): 2.1 S/m
electrical conductivity (x2 = 0.7856): 1.87 S/m
electrical conductivity (x2 = 0.9447): 1.64 S/m

CC[n+]1ccn(C)c1.F[B-](F)(F)F + CC[n+]1ccn(C)c1.N#C[N-]C#N
viscosity (x1 = 1): 36.8 mPa·s
electrical conductivity (x1 = 1): 1.55 S/m
